Assay results: PMC9320114 (Molecules, 2022)

Experiments:
[1] = molecular target: T1, hMAO-B (Homo sapiens, UniProt P27338); experiment: biochemical; details: for IC50: IC50 ± SEM; for remaining activity at 10 µM / hMAO-B RA [%]: residual activity at 10 µM; for remaining activity at 10 µM: read-out: hMAO-B RA (%)
T1 construct: purchased Sigma Aldrich; host or cells: BTI-TN-5B1-4 baculovirus-infected insect cells
T1 sequence (P27338 1-520): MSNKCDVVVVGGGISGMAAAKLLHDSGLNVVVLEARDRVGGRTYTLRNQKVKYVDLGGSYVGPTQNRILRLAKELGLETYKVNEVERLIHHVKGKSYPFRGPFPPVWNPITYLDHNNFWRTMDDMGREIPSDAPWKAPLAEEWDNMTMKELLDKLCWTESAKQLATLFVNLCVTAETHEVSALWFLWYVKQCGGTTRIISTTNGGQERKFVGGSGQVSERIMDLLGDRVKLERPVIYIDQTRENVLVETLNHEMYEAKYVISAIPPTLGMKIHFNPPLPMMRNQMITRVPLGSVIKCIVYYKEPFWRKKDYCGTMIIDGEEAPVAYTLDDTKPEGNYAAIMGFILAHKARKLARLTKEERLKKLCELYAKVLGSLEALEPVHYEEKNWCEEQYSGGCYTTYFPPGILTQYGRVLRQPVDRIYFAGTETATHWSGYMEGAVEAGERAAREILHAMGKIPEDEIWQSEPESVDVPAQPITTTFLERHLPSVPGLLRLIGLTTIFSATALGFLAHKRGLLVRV
Source text: (§1) The effects of the compounds on hMAO-A and hMAO-B were investigated using a fluorimetric assay, following a method previously described in the literature. Recombinant human microsomal hMAO enzymes expressed in BTI-TN-5B1-4 baculovirus-infected insect cells, horseradish peroxidase (HRP, type II, lyophilized powder), and p-tyramine hydrochloride were purchased from Sigma Aldrich. 10-Acetyl-3,7-dihydroxyphenoxazine (Amplex Red reagent) was synthesized as described in the literature.
After preincubation, the reaction was started by adding final concentrations of 200 µM Amplex Red reagent, 2 U/mL HRP, and 1 mM p-tyramine hydrochloride. Resorufin production was quantified based on the fluorescence produced (λex = 530 nm; λem = 590 nm) at 37 °C over a 20 min period. For the control experiments, DMSO was used instead of appropriate dilutions of the compounds in DMSO. For the determination of blank (b), the enzyme solution was replaced by a phosphate-buffered solution. Initial velocities were calculated from the obtained trend, with each measurement performed in duplicate. Specific fluorescence emission to determine the final results was calculated after subtracting the blank activity (b). Inhibitory potencies were expressed as RAs, and IC50 values were calculated as described in the section “Inhibition of hBChE and mAChE” above.

[2] = molecular target: T2, hMAO-A (Homo sapiens, UniProt P21397); experiment: Inhibition of hMAO-A, fluorimetric Amplex Red assay; assay type: biochemical; details: residual activity at 10 µM; for remaining activity at 10 µM: read-out: hMAO-A RA (%)
T2 construct: purchased Sigma Aldrich; host or cells: BTI-TN-5B1-4 baculovirus-infected insect cells
T2 sequence (P21397 1-527): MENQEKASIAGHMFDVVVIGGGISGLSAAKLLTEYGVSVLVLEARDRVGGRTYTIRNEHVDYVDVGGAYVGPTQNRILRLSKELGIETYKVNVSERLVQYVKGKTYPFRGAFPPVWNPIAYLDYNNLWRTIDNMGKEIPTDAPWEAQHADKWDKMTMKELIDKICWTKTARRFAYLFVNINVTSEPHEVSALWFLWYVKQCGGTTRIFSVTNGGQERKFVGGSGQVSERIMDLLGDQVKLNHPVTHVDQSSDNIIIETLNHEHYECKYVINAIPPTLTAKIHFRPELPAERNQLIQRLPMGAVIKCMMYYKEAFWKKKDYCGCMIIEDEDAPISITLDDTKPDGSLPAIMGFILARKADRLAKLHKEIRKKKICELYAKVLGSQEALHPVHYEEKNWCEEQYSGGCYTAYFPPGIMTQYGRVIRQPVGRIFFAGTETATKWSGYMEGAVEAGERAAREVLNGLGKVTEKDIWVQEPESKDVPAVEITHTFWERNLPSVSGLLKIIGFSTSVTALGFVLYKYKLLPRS
Description: as §1
Briefly, 100 µL of 50 mM sodium phosphate buffer (pH 7.4, 0.05% (v/v) Triton X-114), containing the compounds and hMAO-A or hMAO-B, was incubated for 15 min at 37 °C in a flat-bottomed black 96-well microplate protected from ambient light. After preincubation, the reaction was started by adding final concentrations of 200 µM Amplex Red reagent, 2 U/mL HRP, and 1 mM p-tyramine hydrochloride. Resorufin production was quantified based on the fluorescence produced (λex = 530 nm; λem = 590 nm) at 37 °C over a 20 min period. For the control experiments, DMSO was used instead of appropriate dilutions of the compounds in DMSO. For the determination of blank (b), the enzyme solution was replaced by a phosphate-buffered solution. Initial velocities were calculated from the obtained trend, with each measurement performed in duplicate. Specific fluorescence emission to determine the final results was calculated after subtracting the blank activity (b). Inhibitory potencies were expressed as RAs, and IC50 values were calculated as described in the section “Inhibition of hBChE and mAChE” above.

[3] = molecular target: MurC (Escherichia coli, UniProt P17952); experiment: Inhibition of MurC, colorimetric malachite green method; assay type: biochemical, bacterial; details: for remaining activity at 100 µM: 0.25 h, residual activity at 100 µM, read-out: MurC RA (%); for remaining activity at 100 µM / IC50: Table 2; for MurC inhibition (in words): assayed at 100 µM; for IC50: IC50 ± SEM, read-out: MurC IC50
Description: Inhibition of Mur enzymes was monitored with the colorimetric malachite green method, which measured orthophosphate formed during reaction. The mixtures with a final volume of 50 µL contained:
MurC: 50 mM HEPES-NaOH, pH 8.0, 5 mM MgCl2, 0.005% Triton X-114, 120 µM L-Ala, 120 µM UDP-N-acetyl-muramic acid, 450 µM ATP, purified MurC, and 50 or 100 µM of each compound tested.
All compounds were soluble in the assay mixtures containing 5% DMSO (v/v). After incubation for 15 min (20 min for DdlB) at 37 °C, the enzyme reaction was terminated by addition of Biomol® reagent (100 µL) and absorbance was measured after 5 min at 650 nm (Synergy™ H4 microplate reader; BioTek Instruments, Inc., BioTek Gen5 Data Analysis Software, version 2.9, Santa Clara, CA, USA). All experiments were performed in duplicate.

MurC, sequence (P17952 whole entry): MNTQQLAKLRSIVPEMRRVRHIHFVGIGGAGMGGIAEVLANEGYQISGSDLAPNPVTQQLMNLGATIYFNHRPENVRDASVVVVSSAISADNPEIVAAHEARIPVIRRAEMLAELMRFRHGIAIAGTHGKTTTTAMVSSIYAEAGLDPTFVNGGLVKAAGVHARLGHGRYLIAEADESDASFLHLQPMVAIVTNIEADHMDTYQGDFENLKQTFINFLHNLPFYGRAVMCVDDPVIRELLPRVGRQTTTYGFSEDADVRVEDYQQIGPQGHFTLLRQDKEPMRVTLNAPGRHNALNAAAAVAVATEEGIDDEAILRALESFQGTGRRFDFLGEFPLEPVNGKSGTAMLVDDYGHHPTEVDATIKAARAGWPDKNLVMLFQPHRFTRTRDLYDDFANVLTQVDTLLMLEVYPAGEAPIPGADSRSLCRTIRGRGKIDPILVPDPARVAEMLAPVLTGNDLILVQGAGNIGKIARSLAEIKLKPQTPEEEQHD

Row | Structure (SMILES) | remaining activity at 10 µM ([1]; Table 3) | remaining activity at 10 µM ([2]; Table 3) | remaining activity at 100 µM [3] | hMAO-B RA [%] ([1]; Table S3) | hMAO-A RA [%] ([2]; Table S3) | also measured
1 | Nc1ncnc2c1ncn2-c1ccc(NC(=O)Nc2cc(C(F)(F)F)ccc2-n2cncn2)cc1 [Compound 22] | 6% | 111% | – | – | – | IC50 ([1]; Table 3): 0.71 ± 0.1 µM
2 | CNC(=O)c1cc(Oc2ccc(NC(=O)Nc3cc(C(F)(F)F)ccc3-n3cncn3)cc2)ccn1 [Compound 21] | – | – | – | – | – | hMAO-B RA [%] ([1]; Table 3): 88%; hMAO-A RA [%] ([2]; Table 3): 92%
3 | CNC(=O)c1cc(Oc2ccc(NC(=O)Nc3cc(C(F)(F)F)ccc3-n3cncn3)cc2)ccn1 [Compound 20] | 99% | – | – | – | – | hMAO-A RA [%] ([2]; Table 3): 60%
4 | CCCCc1nc2ccn(CC(=O)C(C)(C)C)c(=O)c2n1Cc1ccc(-c2ccccc2-c2nnn[nH]2)cc1 [Compound 17] | – | – | 75% | – | – | MurC inhibition (in words) [3]: loss of MurC inhibition
5 | CNC(=O)c1cc(Oc2ccc(NC(=O)Nc3cc(C(F)(F)F)ccc3F)cc2)ccn1 [Compound 24] | 100% | 100% | – | – | – | –
6 | CCCCc1nc2ccn(Cc3ccccc3Cl)c(=O)c2n1Cc1ccc(-c2ccccc2-c2nnn[nH]2)cc1 [Compound 11] | – | – | 20% | – | – | IC50 [3]: 77 ± 12 µM
7 | CCCCc1nc2ccn(CC(=O)NC(C)(C)C)c(=O)c2n1Cc1ccc(-c2ccccc2S(=O)(=O)NC(=O)CCc2ccccc2)cc1F [Compound 15] | – | – | 59% | – | – | MurC inhibition (in words) [3]: loss of MurC inhibition
8 | CCCCc1nc2ccn(Cc3ccsc3)c(=O)c2n1Cc1ccc(-c2ccccc2-c2nnn[nH]2)cc1 [Compound 14] | – | – | 26% | – | – | IC50 [3]: 90 ± 13 µM
9 | CCCCc1nc2ccn(Cc3ccccc3C(=O)OC)c(=O)c2n1Cc1ccc(-c2ccccc2-c2nnn[nH]2)cc1 [Compound 12] | – | – | 27% | – | – | IC50 [3]: 84 ± 15 µM
10 | CNC(=O)c1cc(Oc2ccc(NC(=O)Nc3cc(C(F)(F)F)ccc3-n3cncn3)cc2)cc[n+]1[O-] [Compound 26] | 98% | 89% | – | – | – | –
11 | COc1ccc2c3c([nH]c2c1)C(C)=NCC3 [Harmaline, reference compound] | – | 0% | – | – | – | –
12 | c1cc(OCC2CCCN2c2ccnc3ncnn23)c2cccnc2c1 (centres unmarked) [Compound S4] | – | – | – | 99% | 80% | –
13 | CCCCc1nc2ccn(CC(=O)N3CCCCC3)c(=O)c2n1Cc1ccc(-c2ccccc2S(=O)(=O)NC(=O)CCc2ccccc2)cc1F [Compound 16] | – | – | 53% | – | – | –
14 | O=C(NCCc1ccc(Cl)cc1)c1cc(OCC2CCCN2c2ccnc3ncnn23)c2ccccc2n1 (centres unmarked) [Compound S8] | – | – | – | 104% | 86% | –
15 | c1cc(OCC2CCCN2c2ccnc3ncnn23)c2ccncc2c1 (centres unmarked) [Compound S2] | – | – | – | 88% | 87% | –
16 | CCCCc1nc2ccn(Cc3ccccc3C(=O)O)c(=O)c2n1Cc1ccc(-c2ccccc2-c2nnn[nH]2)cc1 [Compound 13] | – | – | 34% | – | – | IC50 [3]: 109 ± 26 µM
17 | FC(F)(F)c1ccc2nccc(OCC3CCCN3c3ccnc4ncnn34)c2c1 (centres unmarked) [Compound S1] | – | – | – | 75% | 70% | –
18 | Nc1ccc(NC(=O)Nc2cc(C(F)(F)F)ccc2-n2cncn2)cc1 [Compound 23] | 24% | 100% | – | – | – | IC50 ([1]; Table 3): 3 ± 0.8 µM
19 | CNC(=O)c1cc(Oc2ccc(NC(=O)Nc3ccc(Cl)c(C(F)(F)F)c3)cc2)ccn1 [Compound 29] | 89% | 86% | – | – | – | –
20 | O=C(Nc1cc(C(F)(F)F)ccc1-n1cncn1)Nc1ccc(OCCN2CCOCC2)c2ccccc12 [Compound 25] | 86% | 79% | – | – | – | –
21 | CN(C)CCOc1ccc(NC(=O)Nc2cc(C(F)(F)F)ccc2-n2cncn2)cc1 [Compound 27] | 6% | 117% | – | – | – | IC50 ([1]; Table 3): 0.465 ± 0.042 µM
22 | CCOc1cccc(C(=O)OCC2CCCN2c2ccnc3ncnn23)c1 (centres unmarked) [Compound S6] | – | – | – | 88% | 96% | –
23 | O=C(OCC1CCCN1c1ccnc2ncnn12)c1cccc(OC(F)(F)F)c1 (centres unmarked) [Compound S10] | – | – | – | 81% | 92% | –
24 | O=C(OCC1CCCN1c1ccnc2ncnn12)c1ccccc1I (centres unmarked) [Compound S9] | – | – | – | 93% | 90% | –
25 | CC(=O)N1CCc2cccc(OCC3CCCN3c3ccnc4ncnn34)c2C1 (centres unmarked) [Compound S5] | – | – | – | 98% | 94% | –
26 | CCCCc1nc2ccn(Cc3ccccc3F)c(=O)c2n1Cc1ccc(-c2ccccc2-c2nnn[nH]2)cc1 [Compound 10] | – | – | 30% | – | – | IC50 [3]: 92 ± 11 µM
27 | N#Cc1cccc(C(=O)OCC2CCCN2c2ccnc3ncnn23)c1 (centres unmarked) [Compound S3] | – | – | – | 91% | 96% | –
28 | O=C(OCC1CCCN1c1ccnc2ncnn12)c1cccc(CCl)c1 (centres unmarked) [Compound S7] | – | – | – | 93% | 70% | –
29 | CCCCc1nc2ccn(Cc3ccccc3-c3ccccc3)c(=O)c2n1Cc1ccc(-c2ccccc2-c2nnn[nH]2)cc1 [Compound 19] | – | – | 15% | – | – | IC50 [3]: 75 ± 9 µM
30 | O=C(Nc1ccc(OCCN2CCCCC2)cc1)Nc1cc(C(F)(F)F)ccc1-n1cncn1 [Compound 28] | 15% | 94% | – | – | – | IC50 ([1]; Table 3): 2.6 ± 0.1 µM
